Assays:
[1] = tested on: microbe spectrum of a microbially contaminated slurry; experiment: quantitative test of microbial count reduction in a microbially contaminated slurry; type: cell-based; set-up: unit not given here; settings: PCC slurry
Method: Here, the quantitative test was carried out to determine how rapidly (1 hour to 7 days) the stated amounts of active substance reduce the microbial count of a microbially contaminated slurry.

[2] = cited from earlier work
[3] = tested on: microbially contaminated (alkaline) slurry; settings: cited from earlier work

OCOCCOCO [EDDM, (ethylenedioxy)dimethanol]
microbial count ([1]; 100 ppm EDDM, 1 hour): 1.6 * 10^5
microbial count ([1]; 100 ppm EDDM, 2 hours): 1.7 * 10^5
microbial count ([1]; 100 ppm EDDM, 3 hours): 1.6 * 10^5
microbial count ([1]; 100 ppm EDDM, 24 hours): 3.4 * 10^4
microbial count ([1]; 100 ppm EDDM, 3 days): 3.3 * 10^4
microbial count ([1]; 100 ppm EDDM, 7 days): 5.6 * 10^3
microbial count ([1]; 200 ppm EDDM, 1 hour): 1.6 * 10^5
microbial count ([1]; 200 ppm EDDM, 2 hours): 1.1 * 10^5
microbial count ([1]; 200 ppm EDDM, 3 hours): 1.2 * 10^5
microbial count ([1]; 200 ppm EDDM, 24 hours): 2.9 * 10^4
microbial count ([1]; 200 ppm EDDM, 3 days): 2.3 * 10^4
microbial count ([1]; 200 ppm EDDM, 7 days): 1.7 * 10^3
decline in active substance at elevated temperatures ([2]; 50-80° C., over a period of a few days, alkaline pH): no significant decline

O=CCCCC=O [GDA, glutaraldehyde]
microbial count ([1]; 10 ppm GDA, 1 hour): 1.2 * 10^5
microbial count ([1]; 10 ppm GDA, 2 hours): 1.3 * 10^4
microbial count ([1]; 10 ppm GDA, 3 hours): 2.6 * 10^3
microbial count ([1]; 10 ppm GDA, 24 hours): <100
microbial count ([1]; 10 ppm GDA, 3 days): 4.7 * 10^2
microbial count ([1]; 10 ppm GDA, 7 days): 3.5 * 10^5
microbial count ([1]; 20 ppm GDA, 1 hour): 2.2 * 10^3
microbial count ([1]; 20 ppm GDA, 2 hours): 3.0 * 10^2
microbial count ([1]; 20 ppm GDA, 3 hours): <100
microbial count ([1]; 20 ppm GDA, 24 hours): <100
microbial count ([1]; 20 ppm GDA, 3 days): <100
microbial count ([1]; 20 ppm GDA, 7 days): 1.7 * 10^3
degradation of active substance in the slurry ([2]; in the slurry after a few days): completely degraded
time to sanitize a microbially contaminated (alkaline) slurry [3]: 1 to 4 h

Reference: US20090088483A1, “AQUEOUS SUSPENSIONS OR DISPERSIONS OF INORGANIC PIGMENTS CONTAINING A MIXTURE CONSISTING OF DIALDEHYDES AND FORMALDEHYDE CLEAVERS” (priority 2005, published 2009)
